Experimental data as given in patent US20240239752A1, “BICYCLIC HETEROAROMATIC INHIBITORS OF KLK5” (BioCryst Pharmaceuticals, Inc., priority 2021, published 2024).

Target: T1, recombinant human KLK5 (Homo sapiens, UniProt Q9Y337)
T1 construct: purchased Novoprotein or R&D Systems C415 or 1108-SE
T1 sequence (Q9Y337 23-293): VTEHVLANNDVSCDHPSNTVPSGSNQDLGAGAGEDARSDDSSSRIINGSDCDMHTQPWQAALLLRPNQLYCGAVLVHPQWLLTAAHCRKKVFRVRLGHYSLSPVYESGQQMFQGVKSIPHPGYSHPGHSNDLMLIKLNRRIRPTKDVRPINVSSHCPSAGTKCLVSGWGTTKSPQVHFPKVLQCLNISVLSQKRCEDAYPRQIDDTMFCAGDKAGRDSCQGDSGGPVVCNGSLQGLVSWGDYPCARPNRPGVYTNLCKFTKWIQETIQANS
Test: Kallikrein (KLK) 5 enzymatic assay (Boc-VPR-AMC fluorogenic substrate)
Type: biochemical
Conditions: recombinant human KLK5 0.1 μg/well, Boc-VPR-AMC 100 μM, pH 7.5, room temperature, 1% DMSO; tested a minimum of three times
Procedure, shortened: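 Recombinant human KLK5 (0.1 μg/well) was preincubated with compound at room temperature in 0.1 M NaH2PO4, pH 7.5, 1% DMSO, then started with 100 μM Boc-VPR-AMC. The rate was followed at 380/460 nm, and IC50 came from percent inhibition relative to enzyme alone, with at least three runs.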

IC50	Structure (SMILES)
1000 to 10000 nM	CC(C)n1nc(COc2ccccc2CC(=O)O)c2cc(-c3ccnc4c(N)nccc34)ccc21 [Compound 80d, 2-(2-((5-(8-amino-1,7-naphthyridin-4-yl)-1-isopropyl-1H-indazol-3-yl)methoxy)phenyl)acetic acid]
< 1000 nM	COc1c(-c2ccc3c(c2)c(COc2ccccc2CC(=O)O)nn3C(C)C)ccnc1C(=N)N [Compound 81d, 2-(2-((5-(2-carbamimidoyl-3-methoxypyridin-4-yl)-1-isopropyl-1H-indazol-3-yl)methoxy)phenyl)acetic acid]
> 10000 nM	COc1cc(C(=N)N)cc(-c2ccc3c(c2)c(COc2ccccc2CC(=O)O)nn3C(C)C)c1 [Compound 82e, 2-(2-((5-(3-carbamimidoyl-5-methoxyphenyl)-1-isopropyl-1H-indazol-3-yl)methoxy)phenyl)acetic acid]
1000 to 10000 nM	COc1ccc(C(=N)N)cc1-c1ccc2c(c1)c(COc1ccccc1CC(=O)O)nn2C(C)C [Compound 83e, 2-(2-((5-(5-carbamimidoyl-2-methoxyphenyl)-1-isopropyl-1H-indazol-3-yl)methoxy)phenyl)acetic acid]
< 1000 nM	COc1c(C(=N)N)cccc1-c1ccc2c(c1)c(COc1ccccc1CC(=O)O)nn2C(C)C [Compound 84f, 2-(2-((5-(3-carbamimidoyl-2-methoxyphenyl)-1-isopropyl-1H-indazol-3-yl)methoxy)phenyl)acetic acid]
> 10000 nM	CC(C)n1nc(COc2ccccc2CC(=O)O)c2cc(-c3cccc(-c4cn[nH]c4)c3)ccc21 [Compound 85c, 2-(2-((5-(3-(1H-pyrazol-4-yl)phenyl)-1-isopropyl-1H-indazol-3-yl)methoxy)phenyl)acetic acid]
< 1000 nM	Nc1nccc2c(-c3ccc4c(c3)c(COc3ccccc3CC(=O)O)nn4CC3CCOC3)cccc12 (stereo not shown) [Compound 88h, 2-(2-((5-(1-aminoisoquinolin-5-yl)-1-((tetrahydrofuran-3-yl)methyl)-1H-indazol-3-yl)methoxy)phenyl)acetic acid]
< 1000 nM	Nc1nccc2ccc(-c3ccc4c(c3)c(COc3ccccc3CC(=O)O)nn4CC3CCOC3)cc12 (stereo not shown) [Compound 89b, 2-(2-((5-(1-aminoisoquinolin-7-yl)-1-((tetrahydrofuran-3-yl)methyl)-1H-indazol-3-yl)methoxy)phenyl)acetic acid]
< 1000 nM	Nc1nccc2c(-c3ccc4c(c3)c(COc3ccccc3CC(=O)O)nn4C3CCNC3)cccc12 (stereo not shown) [Compound 90a, 2-(2-((5-(1-aminoisoquinolin-5-yl)-1-(pyrrolidin-3-yl)-1H-indazol-3-yl)methoxy)phenyl)acetic acid]
< 1000 nM	Nc1nccc2ccc(-c3ccc4c(c3)c(COc3ccccc3CC(=O)O)nn4C3CCNC3)cc12 (stereo not shown) [Compound 91a, 2-(2-((5-(1-aminoisoquinolin-7-yl)-1-(pyrrolidin-3-yl)-1H-indazol-3-yl)methoxy)phenyl)acetic acid]
< 1000 nM	Nc1nccc2c(-c3ccc4c(c3)c(COc3ccccc3CC(=O)O)nn4C3CCCCO3)cccc12 (stereo not shown) [Compound 92b, 2-(2-((5-(1-aminoisoquinolin-5-yl)-1-(tetrahydro-2H-pyran-2-yl)-1H-indazol-3-yl)methoxy)phenyl)acetic acid]
< 1000 nM	Nc1nccc2ccc(-c3ccc4c(c3)c(COc3ccccc3CC(=O)O)nn4C3CCCCO3)cc12 (stereo not shown) [Compound 93b, 2-(2-((5-(1-aminoisoquinolin-7-yl)-1-(tetrahydro-2H-pyran-2-yl)-1H-indazol-3-yl)methoxy)phenyl)acetic acid]
< 1000 nM	Cc1cccc(OCc2nn(CC3CCOC3)c3ccc(-c4cccc5c(N)nccc45)cc23)c1CC(=O)O (stereo not shown) [Compound 94e, 2-(2-((5-(1-aminoisoquinolin-5-yl)-1-((tetrahydrofuran-3-yl)methyl)-1H-indazol-3-yl)methoxy)-6-methylphenyl)acetic acid]
< 1000 nM	Cc1cccc(OCc2nn(CC3CCOC3)c3ccc(-c4ccc5ccnc(N)c5c4)cc23)c1CC(=O)O (stereo not shown) [Compound 95b, 2-(2-((5-(1-aminoisoquinolin-7-yl)-1-((tetrahydrofuran-3-yl)methyl)-1H-indazol-3-yl)methoxy)-6-methylphenyl)acetic acid]
< 1000 nM	N=C(N)c1cccc(-c2ccc3c(c2)c(COc2ccccc2CC(=O)O)nn3C2CCOC2)c1 (stereo not shown) [Compound 96g, 2-(2-((5-(3-carbamimidoylphenyl)-1-(tetrahydrofuran-3-yl)-1H-indazol-3-yl)methoxy)phenyl)acetic acid]
< 1000 nM	Nc1nccc2c(-c3ccc4[nH]nc(COc5ccccc5CC(=O)O)c4c3)cccc12 [Compound 97a, 2-(2-((5-(1-aminoisoquinolin-5-yl)-1H-indazol-3-yl)methoxy)phenyl)acetic acid]
< 1000 nM	Nc1nccc2ccc(-c3ccc4[nH]nc(COc5ccccc5CC(=O)O)c4c3)cc12 [Compound 98a, 2-(2-((5-(1-aminoisoquinolin-7-yl)-1H-indazol-3-yl)methoxy)phenyl)acetic acid]
1000 to 10000 nM	CC(C)n1nc(COc2ccccc2CC(=O)O)c2cc(-c3ccc4c(N)nccc4c3)ccc21 [Compound 99c, 2-(2-((5-(1-aminoisoquinolin-6-yl)-1-isopropyl-1H-indazol-3-yl)methoxy)phenyl)acetic acid]
< 1000 nM	CC(C)n1nc(COc2ccccc2CC(=O)O)c2cc(-c3ccc4ccnc(N)c4c3)ccc21 [Compound 100b, 2-(2-((5-(1-aminoisoquinolin-7-yl)-1-isopropyl-1H-indazol-3-yl)methoxy)phenyl)acetic acid]
< 1000 nM	COc1ccc(CC(=O)O)c(OCc2nn(C)c3ccc(-c4cccc(C(=N)N)c4)cc23)c1 [Compound 101b, 2-(2-((5-(3-carbamimidoylphenyl)-1-methyl-1H-indazol-3-yl)methoxy)-4-methoxyphenyl)acetic acid]
1000 to 10000 nM	CC(C)n1nc(COc2ccccc2CC(=O)O)c2cc(-c3ccc4onc(N)c4c3)ccc21 [Compound 102c, 2-(2-((5-(3-aminobenzo[d]isoxazol-5-yl)-1-isopropyl-1H-indazol-3-yl)methoxy)phenyl)acetic acid]
< 1000 nM	Cc1ccc(CC(=O)O)c(OCc2nn(C(C)C)c3ccc(-c4cccc(C(=N)N)c4)cc23)c1 [Compound 103c, 2-(2-((5-(3-carbamimidoylphenyl)-1-isopropyl-1H-indazol-3-yl)methoxy)-4-methylphenyl)acetic acid]
< 1000 nM	Cc1ccc(CC(=O)O)c(OCc2nn(C)c3ccc(-c4cccc(C(=N)N)c4)cc23)c1 [Compound 104d, 2-(2-((5-(3-carbamimidoylphenyl)-1-methyl-1H-indazol-3-yl)methoxy)-4-methylphenyl)acetic acid]

Structure (SMILES)	IC50
CC(C)(C)OC(=O)N1CCC(n2nc(COc3ccccc3CC(=O)O)c3cc(-c4cccc5c(N)nccc45)ccc32)C1 (stereo not shown) [Compound 86h, 2-(2-((5-(1-aminoisoquinolin-5-yl)-1-(1-(tert-butoxycarbonyl)pyrrolidin-3-yl)-1H-indazol-3-yl)methoxy)phenyl)acetic acid]	< 1000 nM
CC(C)(C)OC(=O)N1CCC(n2nc(COc3ccccc3CC(=O)O)c3cc(-c4ccc5ccnc(N)c5c4)ccc32)C1 (stereo not shown) [Compound 87c, 2-(2-((5-(1-aminoisoquinolin-7-yl)-1-(1-(tert-butoxycarbonyl)pyrrolidin-3-yl)-1H-indazol-3-yl)methoxy)phenyl)acetic acid]	< 1000 nM
